Like-named read-outs stand apart in the source and are kept apart here.
Columns and labels:
[1] = tested on: pollen tube of Fuji apple; experiment: Pollen tube elongation of self-pollen in medium with style-specific RNase and inhibitor; type: cell-based; settings: 10 units S1 RNase in medium
Protocol: To investigate the effect of the style-specific S1 RNase purified in the example 1-4 on pollen tube elongation of self-pollen, experiment was conducted as follows. First of all, only the self-pollen made from a stamen of Fuji apple was isolated. The isolated pollen was cultured in the medium for pollen tube elongation, which was added with 0, 2, 4 and 6 units (mg^−1min^−1ml) of S1 RNase purified in the example 1-4, respectively, in a dark condition for 24 hours at 28° C. The medium for pollen tube elongation is composed of 20 mM Mes-KOH (pH 6.0), 0.07% Ca(NO3)2·4H2O, 0.02% MgSO4·7H2O, 0.01% KNO3, 0.01% H3BO3 and 2% sucrose, and elongates pollen tube artificially.
10 units (mg^−1min^−1ml^−1) of the style-specific S1 RNase was added to the medium for pollen tube elongation, and ZnSO4 and CuSO4 were added thereto at 1 mM, 2 mM and 5 mM respectively. And then, pollen tube was cultured according to the same method as the Example 2.

[2] = tested on: wild-type tomato; experiment: Fruition rate of wild-type tomato according to blooming period of treatment; type: in vivo; settings: 1 mM
Protocol: To test the effect of a style-specific RNase inhibitor in a practical cultivating environment, the style-specific RNase of the present invention was treated to the wild-type tomato that was cultivated in a greenhouse for research (located in Taegu Catholic University, Kyungsan city, Kyungsangpukdo, Republic of korea). In the present invention, the experiment was performed under the environmental condition that can keep the wild-type tomato, a representative plant having gametophytic self-incompatibility, a single species genetically.
To determine the treatment period of a style-specific RNase inhibitor, the inhibitor was treated at the early blooming period (budding formation period˜prior to fill blooming), the middle blooming period (full blooming) and the late blooming period (1 day after full blooming˜falling period of petal) respectively. The inhibitors, ZnSO4 and CuSO4 were then added with 1 mM (about 288 ppm) and 1 mM (about 250 ppm) respectively at 9˜11 a.m., when pollination of plant occurs most actively. Fruition rate was investigated, and the results of 4 times repeated experiments for 25 blooming periods (reproductive organ containing a stamen, a stigma, a petal, etc.) in each experiment were shown in Table 3 with the statistic value.

[3] = tested on: wild-type tomato; type: in vivo; settings: for Fruition rate: siloxane spreader 0.0335%, 4 days before full blooming; for concentration in which harmful effect of a medicine occurred: in vivo
Protocol: To investigate the fruition rate and harmful effects of a medicine according to the concentration of style-specific RNase inhibitors, ZnSO4 and CuSO4, style-specific RNase inhibitors of the present invention, were treated to wild-type tomato with various concentration in 4 days before full blooming.
Furthermore, to maximize the efficiency of the style-specific RNase inhibitor of the present invention as fruition control agents, ZnSO4 or CuSO4 was mixed with spreader of hexaconazole, siloxane and alkylaryl polyethoxylate class according to most appropriate usage amount by the manufacturer, and treated.
A composition mixed with the spreader of siloxane class (brand name:silhouette, Dongbu precision chemical company, Korea) to 0.0335% was prepared and the composition was treated to wild-type tomato.

[4] = tested on: Fuji apple; experiment: Fruition rate of Fuji apple according to blooming period of treatment; type: in vivo; settings: 1 mM with siloxane spreader 0.0335%
Protocol: To test the effect of a style-specific RNase inhibitor of the present invention in a practical cultivating environment, the style-specific RNase of the present invention was treated to Fuji apple that was cultivated in a greenhouse for research (located in Cheongsong-gun, Kyungsangpukdo, Republic of Korea). In the present invention, the experiment was performed under the environmental condition that can keep the Fuji apple, a representative plant having gametophytic self-incompatibility, a single species genetically. To determine the treatment period of a style-specific RNase inhibitor, the inhibitor was treated at the early blooming period (budding formation period˜prior to full blooming), the middle blooming period (full blooming) and the late blooming period (1 day after full blooming˜falling period of petal) respectively. A composition, which was manufactured by mixing the spreader of siloxane class (brand name: silhouette, Dongbu precision chemical company, Korea) with the inhibitor to the concentration of 0.0335%, was treated under the same condition of the Example 5-1, and the results were shown in Table 5.

[5] = tested on: Fuji apple; type: in vivo; settings: for Fruition rate: siloxane spreader 0.0335%, 4 days before full blooming; for concentration in which harmful effect of a medicine occurred: in vivo
Protocol: To investigate the fruition rate and harmful effect of a medicine according to the concentration of style-specific RNase inhibitors, ZnSO4 and CuSO4, style-specific RNase inhibitors of the present invention, were treated to Fuji apple with various concentration in 4 days before full blooming.
Furthermore, to maximize the efficiency of the style-specific RNase inhibitor of the present invention as fruition control agents, ZnSO4 or CuSO4 was mixed with the spreader of siloxane class (brand name silhouette, Dongbu precision chemical company, Korea) at 0.0335%, and treated to the Fuji apple.

Q: With `O=S(=O)([O-])[O-].[Cu+2]` [CuSO4] as the molecule, how does the “elongation of pollen tube” value ([1]; 1 mM inhibitor) read?
A: elongated again

Q: What about the Fruition rate ([2]; 1 day after full blooming) of the same molecule?
A: 0

Q: And the Fruition rate ([2]; 1 day before blooming)?
A: 0

Q: What about the Fruition rate ([2]; 2 days after full blooming) of the same molecule?
A: 0

Q: What about the Fruition rate ([2]; 2 days before blooming) of the same molecule?
A: 0

Q: And the Fruition rate ([2]; 3 days before blooming)?
A: >37%

Q: What about the Fruition rate ([2]; 4 days before blooming) of the same molecule?
A: >74%

Q: What about the Fruition rate ([2]; 5 days before blooming) of the same molecule?
A: >86%

Q: What about the Fruition rate ([2]; 6 days before blooming) of the same molecule?
A: >91%

Q: And the Fruition rate ([2]; 7 days before blooming)?
A: >91%

Q: And the Fruition rate ([2]; full blooming)?
A: 0

Q: And the Fruition rate ([3]; 20 ppm)?
A: 0%

Q: And the Fruition rate ([3]; 40 ppm)?
A: 15%

Q: What about the Fruition rate ([3]; 60 ppm) of the same molecule?
A: 41%

Q: What about the Fruition rate ([3]; 80 ppm) of the same molecule?
A: 59%

Q: And the Fruition rate ([3]; 100 ppm)?
A: 97%

Q: What about the Fruition rate ([3]; 200 ppm) of the same molecule?
A: 92%

Q: And the Fruition rate ([3]; 300 ppm)?
A: 88%

Q: What about the Fruition rate ([3]; 400 ppm) of the same molecule?
A: 85%

Q: What about the Fruition rate ([3]; 500 ppm) of the same molecule?
A: 77%

Q: What about the Fruition rate ([3]; 600 ppm) of the same molecule?
A: 73%

Q: What about the Fruition rate ([3]; 700 ppm) of the same molecule?
A: 73%

Q: What about the Fruition rate ([3]; 800 ppm) of the same molecule?
A: 44%

Q: And the Fruition rate ([3]; 900 ppm)?
A: 16%

Q: What about the Fruition rate ([3]; 1000 ppm) of the same molecule?
A: 7%

Q: What about the Fruition rate ([3]; 1100 ppm) of the same molecule?
A: 0%

Q: And the Fruition rate ([3]; 1200 ppm)?
A: 0%

Q: What about the Fruition rate ([3]; 1300 ppm) of the same molecule?
A: 0%

Q: And the Fruition rate ([3]; 1400 ppm)?
A: 0%

Q: And the Fruition rate ([3]; 1500 ppm)?
A: 0%

Q: What about the “concentration in which harmful effect of a medicine occurred” value (“concentration in which harmful effect” for short) [3] of the same molecule?
A: ≥ 800 ppm

Q: What about the Fruition rate ([4]; 1 day after full blooming) of the same molecule?
A: 0

Q: And the Fruition rate ([4]; 1 day before blooming)?
A: 0

Q: What about the Fruition rate ([4]; 2 days after full blooming) of the same molecule?
A: 0

Q: What about the Fruition rate ([4]; 2 days before blooming) of the same molecule?
A: >24%

Q: What about the Fruition rate ([4]; 3 days before blooming) of the same molecule?
A: >70%

Q: And the Fruition rate ([4]; 4 days before blooming)?
A: >86%

Q: What about the Fruition rate ([4]; 5 days before blooming) of the same molecule?
A: >91%

Q: What about the Fruition rate ([4]; full blooming) of the same molecule?
A: 0

Q: What about the Fruition rate ([5]; 20 ppm) of the same molecule?
A: 0%

Q: And the Fruition rate ([5]; 40 ppm)?
A: 0%

Q: What about the Fruition rate ([5]; 60 ppm) of the same molecule?
A: 11%

Q: What about the Fruition rate ([5]; 80 ppm) of the same molecule?
A: 39%

Q: And the Fruition rate ([5]; 100 ppm)?
A: 70%

Q: What about the Fruition rate ([5]; 200 ppm) of the same molecule?
A: 76%

Q: And the Fruition rate ([5]; 300 ppm)?
A: 88%

Q: What about the Fruition rate ([5]; 400 ppm) of the same molecule?
A: 85%

Q: And the Fruition rate ([5]; 500 ppm)?
A: 77%

Q: And the Fruition rate ([5]; 600 ppm)?
A: 73%

Q: What about the Fruition rate ([5]; 700 ppm) of the same molecule?
A: 73%

Q: And the Fruition rate ([5]; 800 ppm)?
A: 52%

Q: What about the Fruition rate ([5]; 900 ppm) of the same molecule?
A: 31%

Q: And the Fruition rate ([5]; 1000 ppm)?
A: 21%

Q: And the Fruition rate ([5]; 1100 ppm)?
A: 11%

Q: And the Fruition rate ([5]; 1200 ppm)?
A: 0%

Q: What about the Fruition rate ([5]; 1300 ppm) of the same molecule?
A: 0%

Q: What about the Fruition rate ([5]; 1400 ppm) of the same molecule?
A: 0%

Q: What about the Fruition rate ([5]; 1500 ppm) of the same molecule?
A: 0%

Q: What about the “concentration in which harmful effect” value [5] of the same molecule?
A: ≥ 800 ppm

Q: `O=S(=O)([O-])[O-].[Zn+2]` [ZnSO4] was tested. Which “elongation of pollen tube” value ([1]; 1 mM inhibitor) did it give?
A: elongated again

Q: And the “elongation of pollen tube” value ([1]; 2 mM inhibitor)?
A: elongated again

Q: And the Fruition rate ([2]; 1 day after full blooming)?
A: 0

Q: And the Fruition rate ([2]; 1 day before blooming)?
A: 0

Q: And the Fruition rate ([2]; 2 days after full blooming)?
A: 0

Q: What about the Fruition rate ([2]; 2 days before blooming) of the same molecule?
A: 0

Q: What about the Fruition rate ([2]; 3 days before blooming) of the same molecule?
A: >30%

Q: What about the Fruition rate ([2]; 4 days before blooming) of the same molecule?
A: >71%

Q: And the Fruition rate ([2]; 5 days before blooming)?
A: >83%

Q: What about the Fruition rate ([2]; 6 days before blooming) of the same molecule?
A: >90%

Q: And the Fruition rate ([2]; 7 days before blooming)?
A: >92%

Q: What about the Fruition rate ([2]; full blooming) of the same molecule?
A: 0

Q: And the Fruition rate ([3]; 20 ppm)?
A: 0%

Q: And the Fruition rate ([3]; 40 ppm)?
A: 13%

Q: And the Fruition rate ([3]; 60 ppm)?
A: 31%

Q: And the Fruition rate ([3]; 80 ppm)?
A: 61%

Q: And the Fruition rate ([3]; 100 ppm)?
A: 99%

Q: And the Fruition rate ([3]; 200 ppm)?
A: 98%

Q: And the Fruition rate ([3]; 300 ppm)?
A: 93%

Q: And the Fruition rate ([3]; 400 ppm)?
A: 88%

Q: And the Fruition rate ([3]; 500 ppm)?
A: 85%

Q: And the Fruition rate ([3]; 600 ppm)?
A: 84%

Q: What about the Fruition rate ([3]; 700 ppm) of the same molecule?
A: 74%

Q: And the Fruition rate ([3]; 800 ppm)?
A: 71%

Q: What about the Fruition rate ([3]; 900 ppm) of the same molecule?
A: 62%

Q: What about the Fruition rate ([3]; 1000 ppm) of the same molecule?
A: 0%

Q: What about the Fruition rate ([3]; 1100 ppm) of the same molecule?
A: 0%

Q: And the Fruition rate ([3]; 1200 ppm)?
A: 0%

Q: And the Fruition rate ([3]; 1300 ppm)?
A: 0%

Q: And the Fruition rate ([3]; 1400 ppm)?
A: 0%

Q: And the Fruition rate ([3]; 1500 ppm)?
A: 0%

Q: What about the “concentration in which harmful effect” value [3] of the same molecule?
A: ≥ 900 ppm

Q: What about the Fruition rate ([4]; 1 day after full blooming) of the same molecule?
A: 0

Q: And the Fruition rate ([4]; 1 day before blooming)?
A: 0

Q: And the Fruition rate ([4]; 2 days after full blooming)?
A: 0

Q: What about the Fruition rate ([4]; 2 days before blooming) of the same molecule?
A: >32%

Q: What about the Fruition rate ([4]; 3 days before blooming) of the same molecule?
A: >71%

Q: What about the Fruition rate ([4]; 4 days before blooming) of the same molecule?
A: >93%

Q: And the Fruition rate ([4]; 5 days before blooming)?
A: >92%

Q: And the Fruition rate ([4]; full blooming)?
A: 0

Q: What about the Fruition rate ([5]; 20 ppm) of the same molecule?
A: 0%

Q: And the Fruition rate ([5]; 40 ppm)?
A: 5%

Q: And the Fruition rate ([5]; 60 ppm)?
A: 17%

Q: And the Fruition rate ([5]; 80 ppm)?
A: 36%

Q: And the Fruition rate ([5]; 100 ppm)?
A: 72%

Q: And the Fruition rate ([5]; 200 ppm)?
A: 79%

Q: And the Fruition rate ([5]; 300 ppm)?
A: 93%

Q: What about the Fruition rate ([5]; 400 ppm) of the same molecule?
A: 88%

Q: What about the Fruition rate ([5]; 500 ppm) of the same molecule?
A: 85%

Q: And the Fruition rate ([5]; 600 ppm)?
A: 84%

Q: And the Fruition rate ([5]; 700 ppm)?
A: 74%

Q: And the Fruition rate ([5]; 800 ppm)?
A: 70%

Q: And the Fruition rate ([5]; 900 ppm)?
A: 44%

Q: What about the Fruition rate ([5]; 1000 ppm) of the same molecule?
A: 27%

Q: And the Fruition rate ([5]; 1100 ppm)?
A: 9%

Q: What about the Fruition rate ([5]; 1200 ppm) of the same molecule?
A: 0%

Q: What about the Fruition rate ([5]; 1300 ppm) of the same molecule?
A: 0%

Q: What about the Fruition rate ([5]; 1400 ppm) of the same molecule?
A: 0%

Q: And the Fruition rate ([5]; 1500 ppm)?
A: 0%

Q: What about the “concentration in which harmful effect” value [5] of the same molecule?
A: ≥ 900 ppm

— patent publication US6723680B2, “Composition for regulation of gametophytic self-incompatibility, control method of gametophytic self-incompatibility of a plant and the plant self-pollinated by using said control method” (Istech Co., Ltd., priority 2000, dated 2004)
